Assay results as given in patent US9399145B2, “Nanoscale neuromodulating platform for retina neuron activation apparatus and method” (The Board of Trustees of the University of Illinois, priority 2005, dated 2016).

Key:
[1] = target: T1, α1β2γ2(A79C) GABAARs (γ-79C) (UniProt P18507+P62813+P63138, A118C); assay: Tethering to γ-79C GABAAR-expressing oocytes, voltage clamp; format: cell-based, rat, human
T1 construct: expressed in transfected cells; host or cells: Xenopus laevis oocytes
Description: (§1) Oocytes expressing α1β2γ2 receptors (rat α1, rat β2 and human γ2S) were prepared and studied by two-electrode voltage-clamp recording^58 (holding potential: −70 mV; amplifier: GeneClamp500B; Axon Instruments, Foster City, Calif.). Unless otherwise indicated, oocytes were superfused with Ringer solution (physiological saline) at a rate of ˜1 mL/min. The experiments of FIGS. 35d-e, 36c-e and 47 involved periods of static bathing, i.e., halted superfusion. The γ2(A79C) subunit was prepared by site-directed mutagenesis. Oocyte electrophysiological experiments were carried out in room light. A UV light-emitting diode (peak wavelength: 365 nm; Hamamatsu Photonics, Japan) and a microscope illuminator (white light; Schott Fostec, Auburn, N.Y.) provided UV and visible stimulating light. As measured at the position of the oocyte, the intensity of the UV light at 365 nm was 220 μW/mm^2. At 440 nm, the nominal strength of the visible (white) light (referred to as high-intensity visible light) was 28 μW/mm^2, and that of the ambient room illumination was 0.045 μW/mm^2.

[2] = target: T2, α1β2γ2 GABAARs (rat α1, rat β2 and human γ2S) (UniProt P18507+P62813+P63138); assay: Two-electrode voltage clamp of α1β2γ2 GABAAR-expressing Xenopus oocytes; format: cell-based; conditions: for potentiation of the GABA response: co-applied 3 μM GABA, MPC088 1 μM, MPD021 10 or 100 μM, MPC100 10 μM; for electrophysiological activity of propofol analogs (FIG. 59), words: Xenopus oocyte expression system
T2 construct: expressed in transfected cells; host or cells: Xenopus laevis oocytes
Description: Purple and gray bars indicate periods of presentation of UV light (purple) and high-intensity visible light (High-Vis) (gray), respectively. […] These amplitude determination conditions are denoted by numbers beneath the waveform in FIG. 35d.
In each of the MPC088 experiments, the cis-dominant form was generated by UV light during static bathing. […] Numbers beneath the waveform in FIG. 2(c) denote amplitude determination conditions for that experiment.
as §1, with “0.045 μW/mm^2. In all experiments, low-intensity visible light from the microscope illuminator (3 μW/mm^2 at 440 nm) was present at all times except those involving high-intensity visible illumination. Electrophysiological data were obtained using Clampex 8.2 (Axon Instruments), analyzed using Clampfit 10.0 (Axon Instruments) and OriginPro7.5 (OriginLab, Northampton, Mass.). All statistical analysis employed a two-sample t-test.” for “0.045 μW/mm^2.”

[3] = target: T3, GABAc receptors (Homo sapiens, UniProt P24046); assay: Two-electrode voltage clamp of GABAc-expressing Xenopus oocytes; format: cell-based; conditions: for Hill coefficient n: Hill fit of normalized peak amplitudes; for EC50: Hill fit of peak amplitudes normalized to saturating muscimol response
T3 construct: expressed in transfected cells; host or cells: Xenopus oocytes
Description: (§2) Muscimol-biotin was synthesized wherein biotinamidoeaproic acid N-hydroxysuccinimide ester was reacted with muscimol in N-methylpyrrolidinone in the presence of diisopropylethylamine. The product was purified to homogeneity by reversed-phase HPLC. Peaks were detected by absorbance at 210 nm (FIG. 5), collected, and lyophilized to afford muscimol-biotin. The muscimol-biotin product was judged to be 97% pure by ^IH NMR spectroscopy, with no detectable contamination of the HPLC-purified product peak by muscimol (limit of detection: ca. 1%). Muscimol-biotin was dissolved in DMSO, stored at 3° C., and diluted to desired concentrations in frog Ringer before testing on the oocyte. Electrophysiology procedures used for Xenopus oocyte preparation, including GABAc expression, followed those described previously (Qian et al., 1998). Membrane currents were recorded from GABAc-expressing oocytes by 2-electrode voltage clamp apparatus. FIGS. 6-7 show results obtained for muscimol-biotin in GABAc and GABAA expressing oocytes.
(§3) FIGS. 6 and 7 show the effects of muscimol-biotin on GABAc- and GABAA expressing Xenopus oocytes. […] Right (FIG. 7): GABAA receptors. […] (B) Responses of another oocyte to 2.5 μM muscimol-biotin alone, and to co-application of 2.5 μM muscimol-biotin and 100 μM bicuculline. (C) Family of responses to varying concentrations of muscimol-biotin and to a single, saturating concentration of muscimol (200 μM thick trace) recorded from a single oocyte. (D) Normalized peak amplitudes (mean±SEM) of responses recorded from GABAA-expressing oocytes upon the application of muscimol (open circles) and muscimol-biotin (filled circles) (n=9).

[4] = tested on: GABAA receptors; assay: Two-electrode voltage clamp of GABAA-expressing Xenopus oocytes; format: cell-based; conditions: for Hill coefficient n: Hill fit of normalized peak amplitudes; for EC50: Hill fit of peak amplitudes normalized to saturating muscimol response
Description: as §2, §3

[5] = tested on: GABAARs of retinal ganglion cells; assay: Whole-cell patch clamp of isolated retinal ganglion cells; format: cell-based, rat; conditions: co-applied 100 μM PTX
Description: To test whether native neuronal GABAARs respond to MPC088, retinal ganglion cells (RGCs), a cell type known to abundantly express GABAARs (Ishida et al. (1988); Fischer et al. (1998); Wässle et al. (1998); Rotolo et al. (2003)), were examined. […] The cis-dominant preparation was obtained by pre-treating trans-dominant MPC088 with UV light for 5 min.
Inset: Aggregate data for direct activation by MPC088.
Experiments were conducted on enzymatically dissociated ganglion cells obtained from adult Sprague-Dawley rats (male and female, 6-16 weeks of age) (Charles River Laboratories, Wilmington, Mass.). Procedures for euthanasia, isolation of the retina, and the dissociation of retinal cells were as described previously (Ramsey et al. (2007) except that the period of retinal cell dissociation was shortened from 40 min to 20 min. Isolated ganglion cells were identified on the basis of their morphological appearance and the presence of a large voltage-gated sodium current. Whole-cell patch-clamp techniques similar to those described (Ramsey et al. (2007)) were used to record membrane current responses to test agents. The patch pipette with a resistance of 8-12 MΩ was pulled in two stages using a micro-electrode puller (Model PP830, Narishige Group, Tokyo, Japan). The pipette was filled with an intracellular solution containing 95 mM CsCH3SO3, 20 mM TEA-Cl, 10 mM glutamic acid, 1 mM BAPTA, 10 mM HEPES, 8 mM phosphocreatine di(tris), 1 mM MgATP and 0.2 mM Na2GTP; pH adjusted to 7.2 with CsOH. Cells were clamped at 0 mV (Axopatch 200B amplifier; Axon Instruments), and experimental runs were controlled by pCLAMP system software (Axon Instruments). Electrophysiological data were obtained in response to test compounds dissolved in physiological saline (Ringer solution) that consisted of 135 mM NaCl, 5 mM KCl, 2 mM CaCl2, 2 mM MgCl2, 10 mM glucose, and 5 mM HEPES, pH 7.4. Supplementation of aqueous test solutions with MPC088 was carried out by adding an aliquot of a stock solution containing the compound dissolved in dimethyl sulfoxide (DMSO). In all experiments, the amount of carrier DMSO present in the applied test solution was <1% (v/v). Test solutions were delivered from separate reservoirs by a multi-channel perfusion system. The same UV-LED used in the oocyte experiments was used for UV illumination of MPC088-supplemented test solutions. For preparation of cis-dominant MPC088, the test solution of initially trans-dominant compound underwent a 5-min UV illumination prior to its placement in the perfusion reservoir. All preparative procedures were performed in the dark, and the reservoirs and perfusion lines were light-protected with aluminum foil. As in the oocyte experiments, data were analyzed with Clampfit and plotted with Origin. Unless otherwise stated, numerical data from replicate experiments are presented as mean±SD, and all statistical analyses of data obtained from oocytes and from retinal ganglion cells employed a two-sample t-test.

T2 sequence (P62813 28-455): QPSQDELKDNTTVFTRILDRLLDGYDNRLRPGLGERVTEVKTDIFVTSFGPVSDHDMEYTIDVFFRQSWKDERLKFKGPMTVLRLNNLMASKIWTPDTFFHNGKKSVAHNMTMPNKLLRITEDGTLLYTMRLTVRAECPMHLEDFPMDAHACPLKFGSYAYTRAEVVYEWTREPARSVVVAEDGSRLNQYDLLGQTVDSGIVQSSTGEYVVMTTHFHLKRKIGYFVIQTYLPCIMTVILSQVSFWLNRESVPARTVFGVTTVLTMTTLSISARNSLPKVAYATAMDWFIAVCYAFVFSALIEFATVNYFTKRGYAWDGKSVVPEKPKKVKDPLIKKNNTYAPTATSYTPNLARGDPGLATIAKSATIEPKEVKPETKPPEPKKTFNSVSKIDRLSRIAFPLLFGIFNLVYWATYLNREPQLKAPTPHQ
T2 sequence (P63138 25-474 limits assumed): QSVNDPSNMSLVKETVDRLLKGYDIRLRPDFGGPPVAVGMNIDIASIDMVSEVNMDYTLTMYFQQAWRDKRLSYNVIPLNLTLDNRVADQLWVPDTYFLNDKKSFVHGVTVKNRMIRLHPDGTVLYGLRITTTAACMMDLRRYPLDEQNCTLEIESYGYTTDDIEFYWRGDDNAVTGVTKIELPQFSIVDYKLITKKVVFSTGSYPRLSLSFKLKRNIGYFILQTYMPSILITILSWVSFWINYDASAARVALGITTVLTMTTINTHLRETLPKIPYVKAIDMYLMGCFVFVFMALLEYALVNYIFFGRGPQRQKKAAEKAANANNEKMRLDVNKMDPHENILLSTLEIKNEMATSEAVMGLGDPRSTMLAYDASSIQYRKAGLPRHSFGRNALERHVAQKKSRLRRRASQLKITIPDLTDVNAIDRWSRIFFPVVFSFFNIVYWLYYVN
T2 sequence (P18507 40-467 isoform P18507-1 limits assumed): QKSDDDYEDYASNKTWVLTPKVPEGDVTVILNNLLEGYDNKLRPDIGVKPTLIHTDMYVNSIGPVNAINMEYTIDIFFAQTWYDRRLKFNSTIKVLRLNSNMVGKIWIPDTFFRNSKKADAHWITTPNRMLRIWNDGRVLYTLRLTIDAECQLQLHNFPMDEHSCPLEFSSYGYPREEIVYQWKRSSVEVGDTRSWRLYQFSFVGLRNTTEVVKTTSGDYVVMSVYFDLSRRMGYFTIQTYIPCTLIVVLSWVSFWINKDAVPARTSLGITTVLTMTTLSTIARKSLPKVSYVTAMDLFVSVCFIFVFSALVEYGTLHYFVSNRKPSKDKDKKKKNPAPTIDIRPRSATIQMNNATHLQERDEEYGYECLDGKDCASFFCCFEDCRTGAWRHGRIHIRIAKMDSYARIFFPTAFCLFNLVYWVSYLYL
T1 sequence (P62813 28-455): as the sequence (P62813 28-455) above
T1 sequence (P63138 25-474 limits assumed): as the sequence (P63138 25-474 limits assumed) above
T1 sequence (P18507 40-467 isoform P18507-1 A118C limits assumed): as the sequence (P18507 40-467 isoform P18507-1 limits assumed) above, with A79C counted along it
T3 sequence (P24046 22-479): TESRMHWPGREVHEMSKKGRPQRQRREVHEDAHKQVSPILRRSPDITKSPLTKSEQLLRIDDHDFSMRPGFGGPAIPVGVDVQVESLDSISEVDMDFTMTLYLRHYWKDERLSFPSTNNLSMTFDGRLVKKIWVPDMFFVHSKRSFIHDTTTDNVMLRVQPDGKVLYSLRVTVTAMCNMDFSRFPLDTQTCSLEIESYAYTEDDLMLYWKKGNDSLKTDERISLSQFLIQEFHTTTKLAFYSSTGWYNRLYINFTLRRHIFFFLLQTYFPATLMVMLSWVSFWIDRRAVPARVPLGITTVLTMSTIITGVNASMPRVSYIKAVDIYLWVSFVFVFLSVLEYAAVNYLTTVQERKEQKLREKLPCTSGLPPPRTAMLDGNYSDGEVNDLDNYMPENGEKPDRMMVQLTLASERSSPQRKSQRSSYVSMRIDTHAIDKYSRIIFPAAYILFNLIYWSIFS

CC(C)c1cc(CCCC(=O)NCc2ccc(/N=N/c3ccc(C(=O)NCCNC(=O)CCOCCOCCOCCOCCOCCOCCOCCOCCOCCOCCOCCOCCOCCOCCOCCOCCOCCOCCOCCOCCOCCOCCOCCOCCNC(=O)CCN4C(=O)C=CC4=O)cc3)cc2)cc(C(C)C)c1O [MPC100, (E)-N-(82-(2,5-Dioxo-2,5-dihydro-1H-pyrrol-1-yl)-4,80-dioxo-7,10,13,16,19,22,25,28,31,34,37,40,43,46,49,52,55,58,61,64,67,70,73,76-tetracosaoxa-3,79-diazadooctacontyl)-4-((4-((4-(4-hydroxy-3,5-diisopropylphenyl)butanamido)methyl)phenyl)diazenyl)benzamide]
ratio of 3 μM GABA response amplitudes post- vs. pre-MPC100 treatment ([1]; 100 μM MPC100, 10 min, after methyl-(PEG)11-maleimide pre-treatment): 1.1±0.1
potentiation after incubation and washout ([1]; 100 μM, ~5-7 min, then Ringer superfusion): persistent potentiation of the GABA response
effect of tethering on potentiating action of diazepam ([1]; data not shown): eliminated the potentiating action of diazepam
direct activation of wildtype receptors ([2]; 10 μM, no GABA): negligible
potentiation of the GABA response [2]: smaller than that produced by equimolar trans-dominant MPC088
response to GABA after MPC100 treatment and Ringer perfusion ([2]; wildtype receptors, 100 μM, 7 min): not significantly enhanced

CCCC(=O)NCc1ccc(/N=N/c2ccc(C(=O)NCCN)cc2)cc1 [MPD021, (E)-N-(2-Aminoethyl)-4-((4-(butyramidomethyl)phenyl)diazenyl)benzamide]
response amplitude relative to the 3 μM GABA response ([2]; 3 μM GABA + 10 μM compound): 1.03±0.07
response amplitude relative to the 3 μM GABA response ([2]; 3 μM GABA + 100 μM compound): 1.03±0.11
potentiation of the GABA response [2]: no potentiation of the GABA response

CC(C)c1cc(CCCC(=O)O)cc(C(C)C)c1O [compound 8]
electrophysiological activity of propofol analogs (FIG. 59), words [2]: poor activity

COC(=O)c1ccc(/N=N/c2ccc(CNC(=O)CCCc3cc(C(C)C)c(O)c(C(C)C)c3)cc2)cc1 [compound 9]
electrophysiological activity of propofol analogs (FIG. 59), words [2]: poor activity

CC(C)c1cc(CCCC(=O)Oc2ccc(/N=N/c3ccccc3)cc2)cc(C(C)C)c1O [compound 14, (E)-4-(phenyldiazenyl) phenyl 4-(4-hydroxy-3,5-diisopropylphenyl) butanoate]
electrophysiological activity of propofol analogs (FIG. 59), words [2]: active

CC(C)c1cc(CCCC(=O)NCc2ccc(/N=N/c3ccc(C(=O)O)cc3)cc2)cc(C(C)C)c1O [compound 18, (E)-4-((4-((4-(4-hydroxy-3,5-diisopropylphenyl)butanamido)methyl)phenyl)diazenyl) benzoic acid]
electrophysiological activity of propofol analogs (FIG. 59), words [2]: strong GABAAR potentiation

NCc1cc(=O)[nH]o1 [muscimol, reference compound]
Hill coefficient n [3]: 1.2
EC50 [3]: 2 µM
Hill coefficient n [4]: 0.74
EC50 [4]: 4.8 µM

O=C(CCCC[C@@H]1SC[C@@H]2NC(=O)N[C@@H]21)NCCCCCC(=O)NCc1cc(O)no1 [muscimol-biotin]
Hill coefficient n [3]: 4.4
EC50 [3]: 20 µM
Hill coefficient n [4]: 1.4
EC50 [4]: 385 µM

(E)-N-(2-Aminoethyl)-4-((4-((4-(4-hydroxy-3,5-diisopropylphenyl)butanamido)methyl)phenyl)diazenyl)benzamide [MPC088]
electrophysiological activity of propofol analogs (FIG. 59), words [2]: strong GABAAR potentiation

methyl-(PEG)11-maleimide [reference compound]
persistent increase in the 3 μM GABA response ([1]; 1 mM, 10-min treatment): 71±25%

picrotoxin [reference compound]
reduction of the response to 2 μM GABA+10 μM trans-dominant MPC088 [5]: 94±1%
reduction of the response to 60 μM trans-dominant MPC088 alone [5]: 95±2%
reduction of baseline current ([1]; PTX applied to cells treated with 100 μM MPC100 and washed): 85±7%
effect of antagonist on the MPC088-elicited response ([2]; picrotoxin 100 μg, gabazine 30 μg, bicuculline 100 μM (so in the source)): eliminated
